Reference: patent US20150157575A1, “Pharmaceutical Formulations Comprising Vilazodone” (Forest Laboratories Holdings Ltd., priority 2013, published 2015)

Key:
serotonin reuptake site = serotonin reuptake site (Homo sapiens, UniProt P31645); conditions: cited from earlier work
[1] = Study 2: single-dose pharmacokinetics in severe hepatic impairment and matched healthy controls; conditions: for AUC(0-t) / AUC(0-inf) / Cmax / Tmax / half-life: both, human, po, 20 mg; for AUC(0-inf): AUC0-∞; for AUC(0-inf) / Cmax / Tmax / half-life: vilazodone 20 mg single oral dose
Method: The pharmacokinetics, tolerability, and safety of vilazodone were investigated in two separate trials involving participants with hepatic impairment, compared with healthy controls. An Open-label, parallel-group, single-dose pharmacokinetic studies, a single, oral dose of vilazodone (20 mg with increased hardness) was administered to participants with mild, moderate, or severe hepatic impairment or individually matched controls. Outcomes included pharmacokinetic parameters and safety (vital signs, clinical laboratory evaluations, ECG, and adverse events [AEs]). Plasma samples were analyzed using validated LC/MS/MS methods.
Data from two, open-label, parallel-group, single-dose pharmacokinetic studies investigated single-dose vilazodone (20 mg with increased hardness) in participants with hepatic impairment and normal hepatic function. The first study (Study 1) included participants with mild or moderate hepatic impairment and healthy controls. The second study (Study 2) included participants with severe hepatic impairment or healthy participants. These studies were both designed in accordance with the FDA guidance for evaluation of pharmacokinetics in the presence of hepatic impairment. The differences between the study protocols were minimal, so both methodologies are described together, with any differences noted below.
Participants were men and women, 18 to 70 years of age, with a body mass index (BMI) of 18-42 kg/m^2. Women were not pregnant or breastfeeding and agreed to utilize a medically accepted form of contraception during the study (as did men in Study 2). In Study 2, participants were also required to be non-smokers or light smokers (fewer than 10 cigarettes per day; there was no stipulation in Study 1) and to have a sitting pulse rate of 50-100 bpm at screening and prior to dosing on Day 1. […] Each healthy control was matched with a hepatically impaired participant. Control participants in the Study 1 were matched with a hepatically impaired individual according to age (±10 years), sex, and BMI (±15%). Control participants in Study 2 were matched with a hepatically impaired individual according to age (±5 years), sex, and weight (±10%).
Participants with hepatic dysfunction were classified according to the Child-Pugh hepatic dysfunction staging system as having mild (5-6 points) or moderate (7-9 points) hepatic impairment (Study 1), or severe impairment (10-15 points; Study 2). Participants with severe impairment also had chronic liver disease and/or compensated cirrhosis, as evidenced by liver biopsy, computerized tomography or ultrasonic evidence of hepatic fibrosis, clinical evidence of chronic liver disease, or a colloid shift on a liver-spleen scan. Exclusion criteria included the following: a clinical diagnosis or history of depression; treatment with antidepressants, anxiolytics, psychoactive medications (including herbal supplements), other serotonergic drugs, or drugs that inhibit CYP3A4 (eg, ketoconazole, diltiazem, macrolide antibiotics); a hypersensitivity to vilazodone or other SSRIs or 5-HT agonists; history or evidence of alcohol or substance abuse, cancer, human immunodeficiency virus, hepatitis B (Study 1 and healthy controls, both studies) hepatitis C (healthy controls, both studies), or other clinically significant illnesses or medical conditions. Participants with severe hepatic impairment were excluded if they had bleeding diathesis, advanced ascites requiring large-volume paracentesis within 1 week of dosing, esophageal bleeding within the previous 8 weeks, history of portosystemic shunt or hepatic transplant, or evidence of hepatic encephalopathy, hepatorenal syndrome, or other evidence of rapid hepatic deterioration.
Participants were not allowed to have previously taken vilazodone or participated in any clinical investigation requiring repeated blood draws within 60 days of dosing, or donated blood or plasma within 60 or 30 days, respectively.

[2] = In vitro dissolution, USP apparatus 2 (paddle); format: physicochemical; conditions: at first 30 minutes; FIGS. 4-6
Method: In the dissolution testing guideline for immediate release profiles, material dissolves over a period of time, and its dissolution is measured at given intervals during this period. A minimum of three time points is recommended and generally cover early, middle and late stages of the dissolution profile. […] In presence of minor changes to the drug dosage forms, a single point dissolution test may be adequate to ensure product dosing compliance. For major changes, a dissolution profile comparison performed under identical conditions for the product before and after the changes(s) is recommended. […] The term “similarity factor” or F2 factor as used herein refers to one way of comparing dissolution profiles of two different products. (Multisource Pharmaceutical Products: Guidelines on Registration Requirements to establish Interchangeability, Quality Assurance and Safety: Medicines, Essential Drugs and Medicines Policy, World Health Organization, 1211 Geneva 27, Switzerland). This model independent mathematical approach compares the dissolution profile of the two products: test and reference (or two strengths, or pre- and post-approved products from the same manufacturer) and calculates percent (%) difference between two curves at each time point and measures the relative error between two curves. Tests are recommended to be performed under the same test conditions. […]

[3] = Severe impairment/control, 20 mg single dose, participants who vomited excluded
[4] = plasma, Control matched to Severe Impairment n = 8
[5] = plasma, Severe Impairment n = 4 (who did not vomit)

Chain of serotonin reuptake site (P31645 whole entry): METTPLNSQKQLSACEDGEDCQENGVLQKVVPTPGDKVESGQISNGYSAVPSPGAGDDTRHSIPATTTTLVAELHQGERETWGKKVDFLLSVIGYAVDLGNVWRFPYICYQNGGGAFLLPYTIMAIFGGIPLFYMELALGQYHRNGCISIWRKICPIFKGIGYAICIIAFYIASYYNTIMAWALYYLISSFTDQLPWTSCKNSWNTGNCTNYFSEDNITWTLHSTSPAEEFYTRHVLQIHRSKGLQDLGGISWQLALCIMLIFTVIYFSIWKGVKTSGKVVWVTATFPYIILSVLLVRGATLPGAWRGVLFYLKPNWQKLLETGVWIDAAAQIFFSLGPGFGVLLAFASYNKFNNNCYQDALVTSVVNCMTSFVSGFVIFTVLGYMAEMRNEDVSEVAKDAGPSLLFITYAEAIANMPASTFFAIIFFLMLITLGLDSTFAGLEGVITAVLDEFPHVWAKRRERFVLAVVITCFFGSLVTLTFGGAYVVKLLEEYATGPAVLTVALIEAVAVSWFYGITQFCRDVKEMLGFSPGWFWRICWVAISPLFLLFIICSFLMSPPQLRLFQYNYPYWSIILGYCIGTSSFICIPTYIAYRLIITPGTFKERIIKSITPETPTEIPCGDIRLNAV

For Cl.N#Cc1ccc2[nH]cc(CCCCN3CCN(c4ccc5oc(C(N)=O)cc5c4)CC3)c2c1 [Vilazodone, 1-[4-(5-cyanoindol-3-yl)butyl]-4-(2-carbamoyl-benzofuran-5-yl)-piperazine hydrochloride], the “binding affinity to serotonin reuptake site” value (serotonin reuptake site) is given as “high affinity”, the “AUC0-t, Ratio of Geometric Means (%)” value [1, 3] is given as 96.9% and the “AUC0-∞, Ratio of Geometric Means (%)” value [1, 3] is given as 95.8%. The “Cmax, Ratio of Geometric Means (%)” value [1, 3] was 75.2%, the AUC(0-t) ([1]; in vivo) was 642 ± 96.9 ng·h/mL and the AUC(0-t) ([1]; plasma) was 694 ± 262 ng·h/mL. For the same compound, the AUC(0-inf) [1, 4] was 731 ± 267 ng·h/mL, the AUC(0-inf) [1, 5] was 670 ± 94.8 ng·h/mL and the Cmax [1, 4] was 35 ± 11.8 ng/mL. The Cmax [1, 5] was 25.3 ± 3.8 ng/mL, the Tmax ([1]; plasma, Tmax (mean), Control matched to Severe Impairment n = 8) was 4.2 ± 1.3 h and the Tmax ([1]; plasma, Tmax (mean), Severe Impairment n = 4 (who did not vomit)) was 4.8 ± 2.2 h. The Tmax ([1]; plasma, Tmax, Median, Control matched to Severe Impairment n = 8) was 4.5 h, the Tmax ([1]; plasma, Tmax, Median, Severe Impairment n = 4 (who did not vomit)) was 4 h and the half-life ([1]; plasma, t1/2, Control matched to Severe Impairment n = 8) was 30.1 ± 13.8 h. The half-life ([1]; plasma, t1/2, Severe Impairment n = 4 (who did not vomit)) was 29.8 ± 4.8 h, the “mean Cmax lower than in healthy controls” value ([1]; severe hepatic impairment vs healthy controls, 20 mg single dose) was “approximately 25%” and the “Mean unbound drug clearance (CLu/F) lower vs matched controls” value ([1]; severe impairment group) was 33%. For the same compound, the “vilazodone HCl released” value [2] was 80%.
